In patent US12643871B2, “Aryl formamide compound containing chiral sulfur oxide or salt thereof, preparation method, herbicidal composition and use thereof” (Qingdao Kingagroot Chemical Compound Co., Ltd., priority 2019, dated 2026):

Key:
Format in all cases: in vivo
Rice(Longyang 16) = assay: Comparison experiment (post-emergence), crop safety on direct seeding rice; details: for Results of comparison experiment, Rice(Longyang 16) (250 g/ha) / Results of comparison experiment, Rice(Longyang 16) (500 g/ha): 1.5-2 leaf-stage of direct seeding rice variety Longyang 16, 25 DAA
From the text: (§1) The above growth control rates are fresh weight control rates.
(§2) Experiment on weeding effect in post-emergence stage: monocotyledonous and dicotyledonous weed seeds (Descurainia sophia, Capsella bursa-pastoris, Galium aparine, Stellaria media, Lithospermum arvense, Rorippa indica, Alopecurus aequalis, Beckmannia syzigachne, Sclerochloa dura, Phleum paniculatum, Bromus japonicus, Aegilops tauschii, Phalaris arundinacea, Amaranthus retroflexus, Chenopodiaceae, Commelina communis, Sonchus arvensis, convolvulus arvensis, Cirsium setosum, Solanum nigrum, Acalypha australis, Digitaria sanguinalis, Echinochloa crusgalli, Setaria viridis, Setaria glauca, Leptochloa chinensis, Monochoria vaginalis, Sagittaria trifolia, Scirpus juncoides, Cyperus rotundus, Cyperus iria, Cyperus difformis, Fimbristylis, Portulaca oleracea, Xanthium sibiricum, Pharbitis nil) and major crop seeds (wheat, corn, rice, soybean, cotton, oilseed rape, millet, sorghum, potato, sesame, ricinus) were placed in plastic pots filled with soil, then covered with 0.5-2 cm of soil, allowed to grow in a good greenhouse environment. After 2 weeks of sowing, the test plants were treated in the 2 leaf stage. The tested compounds of the present invention were respectively dissolved in acetone, then added with Tween 80 and 1.5 liter/ha of emulsifiable concentrate of methyl oleate as synergist, diluted with a certain amount of water to obtain a solution with a certain concentration, and sprayed with a spray tower onto the plants. After the application, the plants were cultured for 15 days in the greenhouse, and then the experimental results of the weeding were counted. The doses of the used compounds were 500, 250, 125, 60, 30, 15 g/ha, and the averages were obtained by repeating for three times.
(§3) If there is no clear marker, the post-seedling test conditions are the same as above, and the experimental results are shown in Tables 4-7.
Longyang 16 is an important cultivated variety representative of long-grain fragrant rice in northeast China. Long-grain fragrant rice is sensitive to herbicides and prone to drug damage, especially HPPD herbicides such as mesotrione and benzobicylon. […] It was not consistent with the well-known structure-activity relationship that aryloxyphenoxypropionic acid herbicides and phenoxypropionic acid herbicides in effective form have high activity to weeds and heavy damage to crops, and in ineffective form have almost no activity.

Leptochloa chinensis [1] = assay: Comparison experiment (post-emergence) against racemate / S configuration; details: for Results of comparison experiment, Leptochloa chinensis (60 g/ha) / Results of comparison experiment, Leptochloa chinensis (125 g/ha): 3-4 weeks after sowing, 4-5 leaf-stage of weed; for Results of comparison experiment, Leptochloa chinensis (60 g/ha): 25DAA; for Results of comparison experiment, Leptochloa chinensis (125 g/ha): 25 DAA (Table 5)
From the text: as §1
as §2, with “After 2 weeks of sowing, the test plants were treated in the 2 leaf stage.” left out, “After the application, the plants were cultured for 15 days in the greenhouse, and then the experimental results of the weeding were counted. The doses of the used compounds were 500, 250, 125, 60, 30, 15 g/ha, and the averages were obtained by repeating for three times.” left out
as §3

Abutilon theophrasti = assay: as above; details: 30 g/ha; 3-4 weeks after sowing, 4-5 leaf-stage of weed, 25DAA
From the text: as §1
as §2, with “After 2 weeks of sowing, the test plants were treated in the 2 leaf stage.” left out, “After the application, the plants were cultured for 15 days in the greenhouse, and then the experimental results of the weeding were counted. The doses of the used compounds were 500, 250, 125, 60, 30, 15 g/ha, and the averages were obtained by repeating for three times.” left out
as §3

Green Setaria viridis = assay: as above; details: for Results of comparison experiment, Green Setaria viridis (60 g/ha): 25DAA
From the text: as §1
as §2, with “After 2 weeks of sowing, the test plants were treated in the 2 leaf stage.” left out, “After the application, the plants were cultured for 15 days in the greenhouse, and then the experimental results of the weeding were counted. The doses of the used compounds were 500, 250, 125, 60, 30, 15 g/ha, and the averages were obtained by repeating for three times.” left out
as §3

Digitaria sanguinalis [2] = assay: as above; details: 30 g/ha; 3-4 weeks after sowing, 4-5 leaf-stage of weed, 25DAA
Alopecurus japonicas = assay: as above; details: Table 6, post-seedling test conditions
From the text: as §1, §2, §3

Digitaria sanguinalis [3] = assay: as above; details: Table 6, post-seedling test conditions; for pest or weed control at 30 g/ha: Digitaria sanguinalis, post-emergence
From the text: as §1, §2, §3

Monochoria vaginalis = assay: Weed control effect evaluation in rice field; details: 30 g/ha; rice field pot, 14 days after treatment; ALS-inhibitor resistant weed from Heilongjiang
From the text: (§4) The activity level criteria for harmful plant damage (i.e., growth control rate) are as follows: • Level 5: growth control rate is above 85%; • Level 4: growth control rate is greater than or equal to 60% and less than 85%; • Level 3: growth control rate is greater than or equal to 40% and less than 60%; • Level 2: growth control rate is greater than or equal to 20% and less than 40%; • Level 1: growth control rate is greater than or equal to 5% and less than 20%; • Level 0: growth control rate is less than 5%.
(§5) Rice field soil was loaded into a 1/1,000,000 ha pot. The seeds of Echinochloa crusgali, Scirpus juncoides, Bidens tripartita, Sagittaria trifolia, Monochoria vaginalis and Leptochloa chinensis were sowed and gently covered with soil, then left to stand still in greenhouse in the state of 0.5-1 cm of water storage. The tuber of Sagittaria trifolia was planted in the next day or 2 days later. It was kept at 3-4 cm of water storage thereafter. The weeds were treated by dripping the WP or SC water diluents prepared according to the common preparation method of the compounds of the present invention with pipette homogeneously to achieve specified effective amount when Echinochloa crusgali, Scirpus juncoides, Bidens tripartita, Monochoria vaginalis and Leptochloa chinensis reached 0.5 leaf stage and Sagittaria trifolia reached the time point of primary leaf stage.
(§6) The fertility condition of Echinochloa crusgali, Scirpus juncoides, Bidens tripartita, Leptochloa chinensis, Sagittaria trifolia and Monochoria vaginalis 14 days after the treatment of the compound of the invention and the fertility condition of rice 21 days after the treatment of the compound of the invention respectively with the naked eye. Evaluate the weed control effect with 0-5 activity standard level. Many compounds show excellent activity and selectivity.

Leptochloa chinensis [4] = assay: Weed control effect evaluation in rice field; details: 30 g/ha; rice field pot, 14 days after treatment
From the text: as §4, §5, §6

Sagittaria trifolia = assay: Weed control effect evaluation in rice field; details: 30 g/ha; rice field pot, 14 days after treatment; ALS-inhibitor resistant weed from Heilongjiang
From the text: as §4, §5, §6

Echinochloa crusgali = assay: Weed control effect evaluation in rice field; details: 30 g/ha; rice field pot, 14 days after treatment; ALS-inhibitor resistant weed from Heilongjiang
From the text: as §4, §5, §6

[5] = 3-4 weeks after sowing, 4-5 leaf-stage of weed, 25 DAA (Table 5)
[6] = 3-4 weeks after sowing, 4-5 leaf-stage of weed
[7] = Table 6, post-seedling test conditions

## CCC[S+]([O-])c1c(C(F)(F)F)ccc(C(=O)Nc2nnc(C)o2)c1F (single isomer, unassigned) [Control Compound A]
Rice(Longyang 16)
  Results of comparison experiment, Rice(Longyang 16) (250 g/ha): 15%
  Results of comparison experiment, Rice(Longyang 16) (500 g/ha): 25%
Rice(Longyang 16); summary of Table 5
  safety to rice (Longyang 16), in words: not safe
Leptochloa chinensis [1]
  Results of comparison experiment, Leptochloa chinensis (60 g/ha): 0%
  Results of comparison experiment, Leptochloa chinensis (125 g/ha): 10%
Leptochloa chinensis [1]; summary of Table 5
  activity against key weeds such as Leptochloa chinensis, in words: lower activity
Abutilon theophrasti
  Results of comparison experiment, Abutilon theophrasti (30 g/ha): 0%
Green Setaria viridis; [5]
  Results of comparison experiment, Green Setaria viridis (30 g/ha): 0%
Green Setaria viridis; [6]
  Results of comparison experiment, Green Setaria viridis (60 g/ha): 15%
Digitaria sanguinalis [2]
  Results of comparison experiment, Digitaria sanguinalis (30 g/ha): 0%

## CCC[S+]([O-])c1c(C(F)(F)F)ccc(C(=O)Nc2nnc(C)o2)c1F (single isomer, unassigned) [Control Compound B]
Rice(Longyang 16)
  Results of comparison experiment, Rice(Longyang 16) (250 g/ha): 5%
  Results of comparison experiment, Rice(Longyang 16) (500 g/ha): 15%
Leptochloa chinensis [1]
  Results of comparison experiment, Leptochloa chinensis (60 g/ha): 30%
  Results of comparison experiment, Leptochloa chinensis (125 g/ha): 80%
Abutilon theophrasti
  Results of comparison experiment, Abutilon theophrasti (30 g/ha): 90%
Green Setaria viridis; [5]
  Results of comparison experiment, Green Setaria viridis (30 g/ha): 10%
Green Setaria viridis; [6]
  Results of comparison experiment, Green Setaria viridis (60 g/ha): 90%
Digitaria sanguinalis [2]
  Results of comparison experiment, Digitaria sanguinalis (30 g/ha): 80%

## CSc1c(C(=O)Nc2nnc(C)o2)ccc(C(F)(F)F)c1[S@@+](C)[O-] [Compound 547]
Alopecurus japonicas
  Results of comparison experiment, Alopecurus japonicas (120 g/ha): 40%
Digitaria sanguinalis [3]
  Results of comparison experiment, Digitaria sanguinalis (30 g/ha): 90%
Green Setaria viridis; [7]
  Results of comparison experiment, Green Setaria viridis (30 g/ha): 80%

## CC[S+]([O-])c1c(C(F)(F)F)ccc(C(=O)Nc2nnc(C)o2)c1SC (stereo not shown) [Control Compound B′]
Alopecurus japonicas
  Results of comparison experiment, Alopecurus japonicas (120 g/ha): 0%
Digitaria sanguinalis [3]
  pest or weed control at 30 g/ha: 30%
Green Setaria viridis; [7]
  Results of comparison experiment, Green Setaria viridis (30 g/ha): 30%

## CCS(=O)(=O)c1c(C(F)(F)F)ccc(C(=O)Nc2nnc(C)o2)c1SC [Control Compound C′]
Alopecurus japonicas
  Results of comparison experiment, Alopecurus japonicas (120 g/ha): 20%
Digitaria sanguinalis [3]
  pest or weed control at 30 g/ha: 10%
Green Setaria viridis; [7]
  Results of comparison experiment, Green Setaria viridis (30 g/ha): 80%

## CCSc1c(C(F)(F)F)ccc(C(=O)Nc2nnc(C)o2)c1SC [Control Compound D′]
Alopecurus japonicas
  Results of comparison experiment, Alopecurus japonicas (120 g/ha): 0%
Digitaria sanguinalis [3]
  pest or weed control at 30 g/ha: 20%
Green Setaria viridis; [7]
  Results of comparison experiment, Green Setaria viridis (30 g/ha): 20%

## CSc1c(C(=O)Nc2nnc(C)o2)ccc(C(F)(F)F)c1[S+](C)[O-] (stereo not shown) [Control Compound E′]
Alopecurus japonicas
  Results of comparison experiment, Alopecurus japonicas (120 g/ha): 15%
Digitaria sanguinalis [3]
  Results of comparison experiment, Digitaria sanguinalis (30 g/ha): 40%
Green Setaria viridis; [7]
  Results of comparison experiment, Green Setaria viridis (30 g/ha): 40%

## CSc1c(C(=O)Nc2nnc(C)o2)ccc(C(F)(F)F)c1[S+](C)[O-] (stereo not shown) [Control Compound F′]
Alopecurus japonicas
  Results of comparison experiment, Alopecurus japonicas (120 g/ha): 0%
Digitaria sanguinalis [3]
  Results of comparison experiment, Digitaria sanguinalis (30 g/ha): 0%
Green Setaria viridis; [7]
  Results of comparison experiment, Green Setaria viridis (30 g/ha): 5%

## COc1cnc(OC)n2nc(NS(=O)(=O)c3c(OCC(F)F)cccc3C(F)(F)F)nc12 [Penoxsulam, reference compound]
Monochoria vaginalis
  Herbicidal effects of compounds, Monochoria vaginalis, 0-5 activity standard level: 1 (Level 1: growth control rate is greater than or equal to 5% and less than 20%)
Leptochloa chinensis [4]
  Herbicidal effects of compounds, Leptochloa chinensis, 0-5 activity standard level: 1 (Level 1: growth control rate is greater than or equal to 5% and less than 20%)
Sagittaria trifolia
  Herbicidal effects of compounds, Sagittaria trifolia, 0-5 activity standard level: 0 (Level 0: growth control rate is less than 5%)
Echinochloa crusgali
  Herbicidal effects of compounds, Echinochloa crusgali, 0-5 activity standard level: 0 (Level 0: growth control rate is less than 5%)
